Data taken from patent US8344178B2, “Processes for producing and recovering shikimic acid” (priority 2007, dated 2013).

How the values were obtained:
[1] = system: E. coli host strain LBB427 transformed with plasmid pXT1483; assay: Shikimic acid from a phosphate-limited high-density fermentation culture with glyphosate (Example 10); type: cell-based, Escherichia coli; settings: optical density of 40; 20 millimolar; twelve hours after addition; sample at pH 1.0, 60 degrees Celsius for 15 minutes
Description: The host strain LBB427 transformed with the plasmid pXT1483 can be grown to high optical densities in a phosphate-limited fermentation culture. Fermentations are conducted in a chemically-defined minimal medium containing 5.9 grams of anhydrous ammonium sulfate ((NH4)2SO4), 1.8 grams of anhydrous dibasic potassium phosphate (K2HPO4), 1.0 grams of monobasic sodium phosphate monohydrate (NaH2PO4—H2O), 550 milligrams of magnesium sulfate heptahydrate (MgSO4-7H2O), 27 milligrams of ferric chloride hexahydrate (FeCl3-6H2O), 0.5 milligrams of zinc sulfate heptahydrate (ZnSO4-7H2O), 0.9 milligrams of cobalt chloride hexahydrate (CoCl2-6H2O), 0.9 milligrams of sodium molybdate dihydrate (Na2MoO4-2H2O), 1.1 milligrams of cupric sulfate pentahydrate (CuSO4-5H2O), 0.3 milligrams of boric acid (H3BO3), and 0.7 milligrams of manganese sulfate monohydrate (MnSO4—H2O) per liter of water. The fermenter is maintained at 37 degrees Celsius. The pH is maintained at 7.0 by the controlled addition of concentrated (about 29%) ammonium hydroxide (NH4OH). […]
Twelve hours after N-(phosphonomethyl)glycine addition, samples of the fermentation cultures are taken for analysis of shikimic acid levels. […] The cells are pelleted by centrifugation, and the culture supernatants are analyzed for shikimic acid content using the HPLC assay described in Example 5.

[2] = system: E. coli K-12 host strain LBB427, untransformed or transformed with plasmid pXT1457; assay: Treatment of E. coli strains with glyphosate in Vogel-Bonner minimal culture medium (Example 7); type: cell-based, Escherichia coli
Description: To confirm that the new plasmid was functioning as expected, the wild-type E. coli K-12 host strain LBB427 was transformed with the plasmid pXT1457. Techniques for transforming bacteria, including strains of E. coli, are known in the art (Sambrook and Russell, 2001; Ausubel et al., 2005). The shikimic acid and phenylalanine production levels of this strain were compared to that of the untransformed host strain LBB427. The strains were cultured in 50 milliliters of Vogel-Bonner minimal culture medium (Vogel and Bonner, 1956), consisting of magnesium sulfate heptahydrate (MgSO4-7H2O) at 298 milligrams per liter, anhydrous dibasic potassium phosphate (K2HPO4) at 14.93 grams per liter, sodium ammonium phosphate tetrahydrate (NaNH4HPO4-4H2O) at 5.22 grams per liter, anhydrous citric acid (the free acid form) at 2.73 grams per liter, and glucose at 2.00 grams per liter. The pH of the culture medium was 7.0. For the strain LBB427 transformed with the plasmid pXT1457, ampicillin was included in the culture medium at 100 milligrams per liter. The cultures were grown in flasks, on an incubator shaker operating at 300 rpm and 37 degrees Celsius. At 24 hours after inoculation, the cells were pelleted by centrifugation, and the culture supernatants were analyzed by a high-pressure liquid chromatography (HPLC) assay for shikimic acid and phenylalanine content. To the samples to be assayed, phosphoric acid was added to a final concentration of 6 millimolar. The samples were injected onto a 0.5 centimeter by […] Altec 5 micron Bondapak C-18 column, and the eluate was scanned from 190 to 300 nanometers.
The untransformed host strain LBB427 and the host strain LBB427 transformed with the plasmid pXT1457 were grown in 50 milliliters of the Vogel-Bonner minimal culture medium described in Example 5. For the strain LBB427 transformed with the plasmid pXT1457, ampicillin was included in the culture medium at 100 milligrams per liter. The cultures were grown in flasks, on an incubator shaker operating at 300 rpm and 37 degrees Celsius. At 2.5 hours after inoculation, N-(phosphonomethyl)glycine was added to a concentration of 3.38 grams per liter (20 millimolar). […] At 24 hours after inoculation (i.e., 21.5 hours after N-(phosphonomethyl)glycine addition), the cells were pelleted by centrifugation, and the culture supernatants were analyzed for shikimic acid content using the HPLC assay described in Example 5. The culture supernatants of the host strain LBB427 transformed with the plasmid pXT1457 were also analyzed for phenylalanine content.

[3] = system: E. coli host strain LBB427, untransformed or transformed with plasmid pXT1457 or pXT1483; assay: Growth of E. coli strains under phosphate-limiting conditions combined with glyphosate treatment (Example 9); type: cell-based, Escherichia coli; settings: for Shikimic acid in the culture supernatant: phosphate-limitation, 20 millimolar, 21.5 hours after addition
Excerpt: A phosphate-limiting culture medium was developed by the Applicants, containing anhydrous magnesium sulfate (MgSO4) at 192 milligrams per liter, ammonium chloride (NH4Cl) at 5.35 grams per liter, potassium chloride (KCl) at 3.73 grams per liter, sodium chloride (NaCl) at 1.17 grams per liter, triethanolamine (a buffering compound) at 22.3 grams per liter, and glucose at 1.5 grams per liter. The pH of the culture medium was 7.0. […] This culture medium was designated PF culture medium (standing for phosphate-free culture medium). However, a phosphate-limiting medium may be formulated for use in the present invention such that, while not phosphate-free, it contains minimal amounts of phosphate (i.e., is substantially free of phosphate). […] Generally, such a phosphate-limiting medium should contain phosphate at levels no more than about 1 millimolar, and preferably at levels no more than about 100 micromolar.
For pre-growth of the strains, sources of phosphate were supplied to this culture medium in the form of Casamino acids at 2.2 grams per liter and yeast extract at 300 milligrams per liter. This culture medium was designated PF-CAA/YE culture medium (standing for PF culture medium plus Casamino acids and yeast extract).
The untransformed host strain LBB427 and the host strain LBB427 transformed with the plasmid pXT1457 or with the plasmid pXT1483 were grown initially in 50 milliliters of the PF-CAA/YE culture medium described in Example 8. For the strains of LBB427 transformed with the plasmid pXT1457 or with the plasmid pXT1483, ampicillin was included in the culture medium at 100 milligrams per liter. The cultures were grown for 2.5 hours in flasks, on an incubator shaker operating at 300 rpm and 37 degrees Celsius. The cells in these cultures were pelleted by centrifugation and resuspended in the same volume of the PF culture medium described in Example 8. For the strains of LBB427 transformed with the plasmid pXT1457 or with the plasmid pXT1483, ampicillin was included in the culture medium at 100 milligrams per liter. To these resuspended cultures, N-(phosphonomethyl)glycine was added to a concentration of 3.38 grams per liter (20 millimolar). […] At 24 hours after inoculation (i.e., 21.5 hours after N-(phosphonomethyl)glycine addition), the cells were pelleted by centrifugation, and the culture supernatants were analyzed for shikimic acid content using the HPLC assay described in Example 5.
It is possible that not all of the accumulated shikimate-3-phosphate in these cells had been converted into shikimic acid and excreted into the culture medium. […] The cells were pelleted by centrifugation, and the culture supernatant was analyzed for shikimic acid content using the HPLC assay described in Example 5.

[4] = system: Soybean; assay: Shikimate accumulation in soybean after glyphosate treatment (Example 2, FIG. 6); type: in vivo; settings: ROUNDUP WEATHERMAX at 100, 200, 400 and 800 g a.e./ha; 1, 2, 3 and 4 days after treatment
Description: (§1) Soybean plants were established in a greenhouse in 4 inch pots and treated with glyphosate at an early vegetative stage. Approximately 1 plant per pot was treated at the V2 growth stage. Plants were treated with ROUNDUP WEATHERMAX in a track sprayer, at 0, 100, 200, 400 and 800 g a.e./ha and returned to the greenhouse. All treatments were replicated 5 times. Leaves were harvested at five time points: immediately after spray (t0), and at 1, 2, 3 and 4 days after treatment. After harvest, leaves were frozen on dry ice, weighed, and then stored at −80 C until extraction and analysis.
(§2) For t0 harvest, leaves were harvested immediately after treatment. For the 1, 2, 3 and 4 day harvest, plants were washed thoroughly with water from a spray hose and then allowed to dry before harvest. This procedure allowed for the measurement of the concentration of shikimic acid as well as an estimate of the concentration of glyphosate treatment (t0) and the amount of glyphosate absorbed and retained in treated leaves (1, 2, 3 and 4 days after treatment).
(§3) Leaf tissue was ground frozen on dry ice to a frozen powder. […]
(§4) Extract analysis was performed using both HPLC/MS and HPLC/uv (210 nm) detection. […] Shikimic acid was also analyzed on a separate Agilent 1100 HPLC system equipped with a 4.6 mm×250 mm, 5 micron ODS2 Waters Spherisorb® column (P/N PSS831915) using a photodiode array detector.

[5] = system: Alfalfa; assay: Shikimate accumulation in alfalfa over time after glyphosate treatment (Example 1, FIG. 5); type: in vivo; settings: ROUNDUP WEATHERMAX at 100, 200, 400 and 800 g a.e./ha; 1, 2, 3 and 4 days after treatment
Description: as §1, with “Alfalfa was” for “Soybean plants were”, “8 plants” for “1 plant”, “were” for “was”, “V4” for “V2”
as §2, §3, §4

[6] = LBB427 transformed with pXT1457, 20 millimolar, 21.5 hours after addition

O=C(O)CNCP(=O)(O)O [glyphosate, N-(phosphonomethyl)glycine]
Shikimic acid in the culture supernatant [1]: about 24 grams of shikimic acid per liter
Growth of the cultures ([2]; 3.38 grams per liter (20 millimolar), added 2.5 hours after inoculation, LBB427 and LBB427 with pXT1457): almost completely inhibited
Phenylalanine in the culture supernatant [2, 6]: about 50 milligrams of phenylalanine per OD unit per liter
Shikimic acid in the culture supernatant [2, 6]: did not produce detectable levels
Shikimic acid in the culture supernatant ([2]; untransformed host strain LBB427, 20 millimolar, 21.5 hours after addition): did not produce detectable levels
Shikimic acid in the culture supernatant ([3]; LBB427 transformed with pXT1457): about 250 milligrams of shikimic acid per OD unit per liter
Shikimic acid in the culture supernatant ([3]; LBB427 transformed with pXT1483): about 400 milligrams of shikimic acid per OD unit per liter
Level of shikimic acid in the culture supernatant after acid and heat treatment of the culture sample ([3]; LBB427 transformed with pXT1483, sample with cells adjusted to pH 1.0, 60 degrees Celsius for 15 minutes): about 600 milligrams per OD unit per liter
Shikimic acid in the culture supernatant ([3]; untransformed host strain LBB427): about 200 milligrams of shikimic acid per OD unit per liter
Shikimic acid accumulation in soybean leaves [4]: accumulates to significantly high levels
Shikimic acid accumulation in alfalfa leaves over time [5]: accumulates to significantly high levels
